Patent US20070032533A1, “Nitric oxide enhancing angiotensin II antagonist compounds, compositions and methods of use” (NitroMed, Inc., priority 2005, published 2007)
Where a name gives a salt, the structure may show the parent alone.

Experiments:
[1] = molecular target: T1, Human angiotensin II type 1 receptor (Homo sapiens, UniProt P30556); experiment: Human angiotensin II type 1 receptor binding assay; details: for inhibition at 0.1 µM / AT1 Binding Human % Inhibition at 100 nM: percent inhibition of control specific binding at 100 nM test compound; for inhibition at 0.1 µM: read-out: AT1 Binding Human % Inhibition at 100 nM
T1 construct: Cerep, Seattle, Wash; (contract laboratory that ran the assay)
T1 sequence (P30556 1-359): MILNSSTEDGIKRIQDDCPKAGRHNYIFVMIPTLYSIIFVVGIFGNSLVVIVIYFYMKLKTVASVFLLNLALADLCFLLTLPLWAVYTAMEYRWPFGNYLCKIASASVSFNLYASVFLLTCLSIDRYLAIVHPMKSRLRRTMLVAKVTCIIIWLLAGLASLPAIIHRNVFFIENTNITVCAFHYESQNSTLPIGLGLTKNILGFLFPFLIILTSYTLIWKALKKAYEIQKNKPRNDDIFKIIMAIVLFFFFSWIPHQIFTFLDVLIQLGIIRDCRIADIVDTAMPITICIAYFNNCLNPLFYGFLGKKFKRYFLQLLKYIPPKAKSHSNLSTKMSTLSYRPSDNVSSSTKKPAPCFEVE
Procedure: Human Angiotensin II Type 1 Receptor Binding Assay
The Human angiotensin II type 1 receptor binding assay was performed by Cerep, Seattle, Wash., using the procedure described in Bergsma et al; Biochem. Biophys. Res. Commun., 183: 989-995 (1992).

Compound: CCOc1nc2cccc(CO[N+](=O)[O-])c2n1Cc1ccc(-c2ccccc2-c2nnn[nH]2)cc1 (as salt: nitrate) [Example 14e, 1H-benzimidazole-7-methanol, 2-ethoxy-1-[[2′-(1H-tetrazol-5-yl)[1,1′-biphenyl]-4-yl]methyl]-, nitrate (ester)]
- melting point: 126 °C (dec.)

Compound: CC(C)[C@@H](C(=O)O)N(Cc1ccc(-c2ccccc2-c2nnn[nH]2)cc1)C(=O)CCCCO[N+](=O)[O-] [Example 1g, L-valine, N-[5-(nitrooxy)-1-oxopentyl]-N-[[2′-(1H-tetrazol-5-yl)[1,1′-biphenyl]-4-yl]methyl]]
- IC50 ([1]; human AT1 receptor binding, performed by Cerep): 18 nM
- inhibition at 0.1 µM [1]: 86%
- melting point: 108 to 111 °C

Compound: CC(C)[C@@H](C(=O)OC(C)(C)C)N(Cc1ccc(-c2ccccc2-c2nnn(C(c3ccccc3)(c3ccccc3)c3ccccc3)n2)cc1)C(=O)CCCCCO[N+](=O)[O-] [Example 2f, L-valine, N-[6-(nitrooxy)-1-oxohexyl]-N-[[2′-[2-(triphenylmethyl)-2H-tetrazol-5-yl][1,1′-biphenyl]-4-yl]methyl]-, 1,1-dimethylethyl ester]
- inhibition at 0.1 µM [1]: 12%

Compound: CC(C)[C@@H](C(=O)O)N(Cc1ccc(-c2ccccc2-c2nnn[nH]2)cc1)C(=O)CCCCCO[N+](=O)[O-] [Example 2g, L-valine, N-[6-(nitrooxy)-1-oxohexyl]-N-[[2′-(1H-tetrazol-5-yl)[1,1′-biphenyl]-4-yl]methyl]]
- melting point: 196 °C (dec.)

Compound: CC(C)[C@@H](C(=O)O)N(Cc1ccc(-c2ccccc2-c2nnn[nH]2)cc1)C(=O)c1cccc(CO[N+](=O)[O-])c1 [Example 3b, L-valine, N-[3-[(nitrooxy)methyl]benzoyl]-N-[[2′-(1H-tetrazol-5-yl)[1,1′-biphenyl]-4-yl]methyl]]
- inhibition at 0.1 µM [1]: 5%
- melting point: 151 °C (dec.)

Compound: CC(C)[C@@H](C(=O)O)N(Cc1ccc(-c2ccccc2-c2nnn[nH]2)cc1)C(=O)CCC(CO[N+](=O)[O-])O[N+](=O)[O-] (stereo partly drawn) [Example 4b, L-valine, N-[4,5-bis(nitrooxy)-1-oxopentyl]-N-[[2′-(1H-tetrazol-5-yl)[1,1′-biphenyl]-4-yl]methyl]]
- inhibition at 0.1 µM [1]: 2%
- melting point: 182 °C (dec.)

Compound: CC(C)[C@@H](C(=O)O)N(Cc1ccc(-c2ccccc2-c2nnn[nH]2)cc1)C(=O)CCCC(CO[N+](=O)[O-])O[N+](=O)[O-] (stereo partly drawn) [Example 5b, L-valine, N-[5,6-bis(nitrooxy)-1-oxohexyl]-N-[[2′-(1H-tetrazol-5-yl)[1,1′-biphenyl]-4-yl]methyl]]
- inhibition at 0.1 µM [1]: -1%
- melting point: 192 °C (dec.)

Compound: CC(C)[C@@H](C(=O)N(C)C)N(Cc1ccc(-c2ccccc2-c2nnn[nH]2)cc1)C(=O)CCCCO[N+](=O)[O-] [Example 6, Pentanamide, N-[(1S)-1-[(dimethylamino)carbonyl]-2-methylpropyl]-5 (nitrooxy)-N-[[2′-(1H-tetrazol-5-yl)[1,1′-biphenyl]-4-yl]methyl]]
- inhibition at 0.1 µM [1]: 83%
- melting point: 75 to 78 °C

Compound: CCCCC(=O)N(CCCO[N+](=O)[O-])Cc1ccc(-c2ccccc2-c2nnn[nH]2)cc1 [Example 7d, Pentanamide, N-[3-(nitrooxy)propyl]-N-[[2′-(1H-tetrazol-5-yl)[1,1′-biphenyl]-4-yl]methyl]]
- inhibition at 0.1 µM [1]: 21%
- melting point: 54 to 59 °C

Compound: CCCCC(=O)N(Cc1ccc(-c2ccccc2-c2nnn[nH]2)cc1)[C@H](C(=O)N(CCO[N+](=O)[O-])CCO[N+](=O)[O-])C(C)C [Example 8]
- inhibition at 0.1 µM [1]: 4%
- melting point: 87 to 90 °C

Compound: CCCCC(=O)N(Cc1ccc(-c2ccccc2-c2nnn[nH]2)cc1)[C@H](C(=O)N(C)CCO[N+](=O)[O-])C(C)C [Example 9]
- inhibition at 0.1 µM [1]: 8%
- melting point: 86 to 89 °C

Compound: CCCCC(=O)N(Cc1ccc(-c2ccccc2-c2nnn[nH]2)cc1)[C@H](C(=O)N1CCC(CO[N+](=O)[O-])CC1)C(C)C [Example 10, Pentanamide, N-[(1S)-2-methyl-1-[[4-[(nitrooxy)methyl]-1-piperidinyl]carbonyl]propyl]-N-[[2′-(1H-tetrazol-5-yl) [1,1′-biphenyl]-4-yl]methyl]]
- inhibition at 0.1 µM [1]: 22%
- melting point: 86 to 88 °C

Compound: CCc1nc2c(C)cc(C)nc2n1Cc1ccc(-c2ccccc2S(=O)(=O)NC(=O)C2CC(C)(C)N([O])C(C)(C)C2)cc1 [Example 11, 1-Piperidinyloxy, 4-[[[[4′-[(2-ethyl-5,7-dimethyl-3H-imidazo[4,5-b]pyridin-3-yl)methyl][1,1′-biphenyl]-2-yl]sulfonyl]amino]carbonyl]-2,2,6,6-tetramethyl]
- AT1 Binding Human % Inhibition at 100 nM [1]: 88%

Compound: CCc1nc2c(C)cc(C)nc2n1Cc1ccc(-c2ccccc2S(=O)(=O)NC(=O)C2=CC(C)(C)N([O])C2(C)C)cc1 [Example 12, 1H-Pyrrol-1-yloxy, 3-[[[[4′-[(2-ethyl-5,7-dimethyl-3H-imidazo[4,5-b]pyridin-3-yl)methyl][1,1′-biphenyl]-2-yl]sulfonyl]amino]carbonyl]-2,5-dihydro-2,2,5,5-tetramethyl]
- AT1 Binding Human % Inhibition at 100 nM [1]: 78%

Compound: CCc1nc2c(C)cc(C)nc2n1Cc1ccc(-c2ccccc2S(=O)(=O)NC(=O)c2cccc(CO[N+](=O)[O-])c2)cc1 [Example 13, Benzamide, N-[[4′-[(2-ethyl-5,7-dimethyl-3H-imidazo[4,5-b]pyridin-3-yl)methyl][1,1′-biphenyl]-2-yl]sulfonyl]-3-[(nitrooxy)methyl]]
- inhibition at 0.1 µM [1]: 73%
- melting point: 123 °C (dec.)

Compound: CCc1nc2c(C)cc(C)nc2n1Cc1ccc(-c2ccccc2S(=O)(=O)NC(=O)c2ccccc2)cc1 [MK 996, reference compound]
- AT1 Binding Human % Inhibition at 100 nM [1]: 91%

Compound: CCCCC(=O)N(Cc1ccc(-c2ccccc2-c2nnn[nH]2)cc1)[C@H](C(=O)O)C(C)C [Valsartan, reference compound]
- inhibition at 0.1 µM [1]: 94%
